According to ChEMBL document CHEMBL1155852, “Novel inhibitors of anthrax edema factor” (Bioorg Med Chem, 2008):
Active and inactive are the calls of the source. The rule behind the calls is not given here.

Tests used:
[1] = biological target: T1, Calmodulin-sensitive adenylate cyclase (Bacillus anthracis, UniProt P40136); test: Inhibition of Bacillus anthracis edema factor-induced cAMP secretion in mouse RAW264.7 cells after 4 hrs by ELISA; assay type: cell-based
T1 sequence (P40136 whole entry): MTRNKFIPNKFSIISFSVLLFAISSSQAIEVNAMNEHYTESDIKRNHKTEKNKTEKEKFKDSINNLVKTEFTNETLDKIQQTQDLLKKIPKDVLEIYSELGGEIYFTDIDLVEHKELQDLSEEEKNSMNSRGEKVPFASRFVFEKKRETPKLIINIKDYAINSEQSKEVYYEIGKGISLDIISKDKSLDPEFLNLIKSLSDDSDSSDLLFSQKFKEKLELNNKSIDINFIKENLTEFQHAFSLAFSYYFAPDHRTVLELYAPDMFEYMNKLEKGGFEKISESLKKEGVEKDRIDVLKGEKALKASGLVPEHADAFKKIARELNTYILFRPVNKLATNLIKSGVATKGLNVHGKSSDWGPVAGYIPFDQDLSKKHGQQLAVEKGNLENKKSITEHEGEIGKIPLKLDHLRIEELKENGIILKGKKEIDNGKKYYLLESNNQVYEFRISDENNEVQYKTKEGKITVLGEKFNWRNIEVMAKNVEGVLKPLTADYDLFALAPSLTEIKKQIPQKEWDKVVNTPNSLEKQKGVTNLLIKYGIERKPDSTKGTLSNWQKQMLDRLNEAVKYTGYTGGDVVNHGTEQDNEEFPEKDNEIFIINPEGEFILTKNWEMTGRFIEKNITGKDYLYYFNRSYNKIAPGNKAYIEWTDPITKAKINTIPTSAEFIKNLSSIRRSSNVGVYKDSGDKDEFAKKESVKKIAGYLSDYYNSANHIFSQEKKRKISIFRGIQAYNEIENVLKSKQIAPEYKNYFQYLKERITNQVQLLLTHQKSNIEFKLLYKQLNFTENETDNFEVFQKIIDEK

[2] = biological target: T2, Calmodulin-sensitive adenylate cyclase (Bacillus anthracis) (UniProt P40136); test: Inhibition of Bacillus anthracis edema factor-induced cAMP secretion in mouse RAW264.7 cells at 100 uM after 4 hrs by ELISA; assay type: cell-based
T2 sequence (whole entry): T1 sequence (P40136 whole entry)

Structure (SMILES)	IC50 [1] [nM]	Activity [2]
COc1cccc([C@H]2Nc3ccc(C(=O)O)cc3[C@@H]3C=CC[C@H]23)c1	1730	–
O=C(O)c1ccc(/N=C/c2c3ccccc3cc3ccccc23)cc1O	8500	–
O=C(O)c1cccc(NC(=O)c2cccc3c2C(=O)c2ccccc2-3)c1	1830	–
CCCCC[C@H](O)/C=C/[C@H]1[C@H](n2ccnc2)CC(=O)[C@@H]1C/C=C\CCCC(=O)O	–	Active
